In US4731451A, “N-((2-oxo-3(2H)benzothiazolyl)methyl)-2-chloroacetanilides” (Monsanto Company, priority 1980, dated 1988):

Key:
Type in all cases: in vivo
Canada Thistle = assay: Pre-emergent herbicidal activity (Table II); conditions: 2-3 weeks
Method: (§1) The pre-emergence tests are conducted as follows:
(§2) A good grade of top soil is placed in aluminum pans and compacted to a depth of three-eighths to one-half inch from the top of the pan. On the top of the soil is placed a predetermined number of seeds or vegetative propagules of various plant species. The soil required to level fill the pans after seeding or adding vegetative propagules is weighed into a pan. A known amount of the active ingredient applied in a solvent or as a wettable powder suspension and the soil are thoroughly mixed, and used as a cover layer for prepared pans. After treatment, the pans are moved into a greenhouse bench where they are watered from below as needed to give adequate moisture for germination and growth.
(§3) Approximately 2-3 weeks after seeding and treating, the plants are observed and the results recorded. The herbicidal rating is obtained by means of fixed scale based on the percent injury of each plant species. The ratings are defined as follows: […]
(§4) The plant species utilized in one set of tests, the data for which are shown in Table II, are identified by letter in accordance with the following legend: […]

Johnsongrass = assay: Pre-emergent herbicidal activity (Table II); conditions: 2-3 weeks
Method: as §1, §2, §3, §4

Lambsquarters [1] = assay: Pre-emergent herbicidal activity (Table II); conditions: 2-3 weeks
Method: as §1, §2, §3, §4

Downy Brome [2] = assay: Pre-emergent herbicidal activity (Table II); conditions: 2-3 weeks
Method: as §1, §2, §3, §4

Smartweed [3] = assay: Pre-emergent herbicidal activity (Table II); conditions: 2-3 weeks
Method: as §1, §2, §3, §4

Morningglory [4] = assay: Pre-emergent herbicidal activity (Table II); conditions: 2-3 weeks
Method: as §1, §2, §3, §4

Quackgrass = assay: Pre-emergent herbicidal activity (Table II); conditions: 2-3 weeks
Method: as §1, §2, §3, §4

Barnyardgrass [5] = assay: Pre-emergent herbicidal activity (Table II); conditions: 2-3 weeks
Method: as §1, §2, §3, §4

Yellow Nutsedge = assay: Pre-emergent herbicidal activity (Table II); conditions: 2-3 weeks
Method: as §1, §2, §3, §4

Velvetleaf [6] = assay: Pre-emergent herbicidal activity (Table II); conditions: 2-3 weeks
Method: as §1, §2, §3, §4

Cocklebur [7] = assay: Pre-emergent herbicidal activity (Table II); conditions: 2-3 weeks
Method: as §1, §2, §3, §4

Soybean = assay: Pre-emergent herbicidal activity (Table III)
Method: as §1, §2, §3
(§5) The compounds were further tested by utilizing the above procedure on the following plant species: […]

Wheat = assay: Pre-emergent herbicidal activity (Table III)
Method: as §1, §2, §3, §5

Lambsquarters [8] = assay: Pre-emergent herbicidal activity (Table III)
Method: as §1, §2, §3, §5

Crabgrass = assay: Pre-emergent herbicidal activity (Table III)
Method: as §1, §2, §3, §5

Hemp Sesbania = assay: Pre-emergent herbicidal activity (Table III)
Method: as §1, §2, §3, §5

Sorghum = assay: Pre-emergent herbicidal activity (Table III)
Method: as §1, §2, §3, §5

Downy Brome [9] = assay: Pre-emergent herbicidal activity (Table III)
Method: as §1, §2, §3, §5

Smartweed [10] = assay: Pre-emergent herbicidal activity (Table III)
Method: as §1, §2, §3, §5

Morningglory [11] = assay: Pre-emergent herbicidal activity (Table III)
Method: as §1, §2, §3, §5

Sugarbeet = assay: Pre-emergent herbicidal activity (Table III)
Method: as §1, §2, §3, §5

Rice = assay: Pre-emergent herbicidal activity (Table III)
Method: as §1, §2, §3, §5

Barnyardgrass [12] = assay: Pre-emergent herbicidal activity (Table III)
Method: as §1, §2, §3, §5

Wild Buckwheat = assay: Pre-emergent herbicidal activity (Table III)
Method: as §1, §2, §3, §5

Panicum = assay: Pre-emergent herbicidal activity (Table III)
Method: as §1, §2, §3, §5

Velvetleaf [13] = assay: Pre-emergent herbicidal activity (Table III)
Method: as §1, §2, §3, §5

Cocklebur [14] = assay: Pre-emergent herbicidal activity (Table III)
Method: as §1, §2, §3, §5

Measured: Herbicidal rating
Also: ranges in brackets are in %.

COc1cccc(C)c1N(Cn1c(=O)sc2ccccc21)C(=O)CCl [Example 2, N-(2'-methoxy-6'-methyl)-N-[(2-oxo-3(2H)-benzothiazolyl)methyl]-2-chloroacetanilide]
0 (0-24): Canada Thistle; 5.6 kg/ha | Canada Thistle; 11.2 kg/ha | Johnsongrass; 5.6 kg/ha | Johnsongrass; 11.2 kg/ha | Smartweed [3]; 5.6 kg/ha | Smartweed [3]; 11.2 kg/ha | Morningglory [4]; 5.6 kg/ha | Morningglory [4]; 11.2 kg/ha | Velvetleaf [6]; 5.6 kg/ha | Velvetleaf [6]; 11.2 kg/ha | Cocklebur [7]; 5.6 kg/ha | Cocklebur [7]; 11.2 kg/ha | Soybean; 0.0112 kg/ha | Soybean; 0.056 kg/ha | Soybean; 0.28 kg/ha | Soybean; 1.12 kg/ha | Soybean; 5.6 kg/ha | Wheat; 0.0112 kg/ha | Wheat; 0.056 kg/ha | Wheat; 0.28 kg/ha | Wheat; 1.12 kg/ha | Lambsquarters [8]; 0.0112 kg/ha | Lambsquarters [8]; 0.056 kg/ha | Crabgrass; 0.0112 kg/ha | Crabgrass; 0.056 kg/ha | Hemp Sesbania; 0.0112 kg/ha | Hemp Sesbania; 0.056 kg/ha | Hemp Sesbania; 0.28 kg/ha | Hemp Sesbania; 1.12 kg/ha | Sorghum; 0.0112 kg/ha | Sorghum; 0.056 kg/ha | Sorghum; 0.28 kg/ha | Downy Brome [9]; 0.0112 kg/ha | Downy Brome [9]; 0.056 kg/ha | Smartweed [10]; 0.0112 kg/ha | Smartweed [10]; 0.056 kg/ha | Morningglory [11]; 0.0112 kg/ha | Morningglory [11]; 0.056 kg/ha | Morningglory [11]; 0.28 kg/ha | Morningglory [11]; 1.12 kg/ha | Morningglory [11]; 5.6 kg/ha | Sugarbeet; 0.0112 kg/ha | Sugarbeet; 0.056 kg/ha | Sugarbeet; 0.28 kg/ha | Sugarbeet; 1.12 kg/ha | Sugarbeet; 5.6 kg/ha | Rice; 0.0112 kg/ha | Rice; 0.056 kg/ha | Barnyardgrass [12]; 0.0112 kg/ha | Wild Buckwheat; 0.0112 kg/ha | Wild Buckwheat; 0.056 kg/ha | Wild Buckwheat; 0.28 kg/ha | Wild Buckwheat; 1.12 kg/ha | Wild Buckwheat; 5.6 kg/ha | Panicum; 0.0112 kg/ha | Velvetleaf [13]; 0.0112 kg/ha | Velvetleaf [13]; 0.056 kg/ha | Velvetleaf [13]; 0.28 kg/ha | Velvetleaf [13]; 1.12 kg/ha | Velvetleaf [13]; 5.6 kg/ha | Cocklebur [14]; 0.0112 kg/ha | Cocklebur [14]; 0.056 kg/ha | Cocklebur [14]; 0.28 kg/ha | Cocklebur [14]; 1.12 kg/ha | Cocklebur [14]; 5.6 kg/ha
1 (25-49): Lambsquarters [1]; 5.6 kg/ha | Lambsquarters [1]; 11.2 kg/ha | Downy Brome [2]; 5.6 kg/ha | Quackgrass; 11.2 kg/ha | Lambsquarters [8]; 5.6 kg/ha | Crabgrass; 0.28 kg/ha | Sorghum; 1.12 kg/ha | Sorghum; 5.6 kg/ha | Downy Brome [9]; 0.28 kg/ha | Smartweed [10]; 0.28 kg/ha | Rice; 0.28 kg/ha | Panicum; 0.28 kg/ha
3 (75-100): Barnyardgrass [5]; 5.6 kg/ha | Barnyardgrass [5]; 11.2 kg/ha | Yellow Nutsedge; 5.6 kg/ha | Yellow Nutsedge; 11.2 kg/ha | Lambsquarters [8]; 1.12 kg/ha | Crabgrass; 1.12 kg/ha | Crabgrass; 5.6 kg/ha | Downy Brome [9]; 1.12 kg/ha | Downy Brome [9]; 5.6 kg/ha | Rice; 1.12 kg/ha | Rice; 5.6 kg/ha | Barnyardgrass [12]; 0.28 kg/ha | Barnyardgrass [12]; 1.12 kg/ha | Barnyardgrass [12]; 5.6 kg/ha | Panicum; 1.12 kg/ha | Panicum; 5.6 kg/ha
2 (50-74): Downy Brome [2]; 11.2 kg/ha | Quackgrass; 5.6 kg/ha | Wheat; 5.6 kg/ha | Lambsquarters [8]; 0.28 kg/ha | Hemp Sesbania; 5.6 kg/ha | Smartweed [10]; 1.12 kg/ha | Smartweed [10]; 5.6 kg/ha | Barnyardgrass [12]; 0.056 kg/ha | Panicum; 0.056 kg/ha

CCc1cccc(CC)c1N(Cn1c(=O)sc2ccccc21)C(=O)CCl [Example 3, N--[(2-oxo-3(2H)--benzothiazolyl)methyl]-2'-6'-diethyl-2-chloroacetanilide]
0 (0-24): Canada Thistle; 5.6 kg/ha | Canada Thistle; 11.2 kg/ha | Johnsongrass; 5.6 kg/ha | Johnsongrass; 11.2 kg/ha | Lambsquarters [1]; 5.6 kg/ha | Lambsquarters [1]; 11.2 kg/ha | Smartweed [3]; 5.6 kg/ha | Smartweed [3]; 11.2 kg/ha | Morningglory [4]; 5.6 kg/ha | Morningglory [4]; 11.2 kg/ha | Quackgrass; 5.6 kg/ha | Velvetleaf [6]; 5.6 kg/ha | Velvetleaf [6]; 11.2 kg/ha | Cocklebur [7]; 5.6 kg/ha | Cocklebur [7]; 11.2 kg/ha | Soybean; 0.28 kg/ha | Soybean; 1.12 kg/ha | Soybean; 5.6 kg/ha | Wheat; 0.28 kg/ha | Wheat; 1.12 kg/ha | Wheat; 5.6 kg/ha | Lambsquarters [8]; 0.28 kg/ha | Lambsquarters [8]; 1.12 kg/ha | Lambsquarters [8]; 5.6 kg/ha | Hemp Sesbania; 0.28 kg/ha | Hemp Sesbania; 1.12 kg/ha | Hemp Sesbania; 5.6 kg/ha | Sorghum; 0.28 kg/ha | Sorghum; 1.12 kg/ha | Sorghum; 5.6 kg/ha | Downy Brome [9]; 0.28 kg/ha | Smartweed [10]; 0.28 kg/ha | Smartweed [10]; 5.6 kg/ha | Morningglory [11]; 0.28 kg/ha | Morningglory [11]; 1.12 kg/ha | Morningglory [11]; 5.6 kg/ha | Sugarbeet; 0.28 kg/ha | Sugarbeet; 1.12 kg/ha | Sugarbeet; 5.6 kg/ha | Rice; 1.12 kg/ha | Rice; 5.6 kg/ha | Wild Buckwheat; 0.28 kg/ha | Wild Buckwheat; 1.12 kg/ha | Wild Buckwheat; 5.6 kg/ha | Panicum; 0.28 kg/ha | Velvetleaf [13]; 0.28 kg/ha | Velvetleaf [13]; 1.12 kg/ha | Velvetleaf [13]; 5.6 kg/ha | Cocklebur [14]; 0.28 kg/ha | Cocklebur [14]; 1.12 kg/ha | Cocklebur [14]; 5.6 kg/ha
2 (50-74): Crabgrass; 1.12 kg/ha | Downy Brome [9]; 5.6 kg/ha
3 (75-100): Barnyardgrass [5]; 5.6 kg/ha | Barnyardgrass [5]; 11.2 kg/ha | Crabgrass; 5.6 kg/ha | Barnyardgrass [12]; 0.28 kg/ha | Barnyardgrass [12]; 1.12 kg/ha | Barnyardgrass [12]; 5.6 kg/ha | Panicum; 5.6 kg/ha
1 (25-49): Downy Brome [2]; 5.6 kg/ha | Downy Brome [2]; 11.2 kg/ha | Quackgrass; 11.2 kg/ha | Yellow Nutsedge; 5.6 kg/ha | Yellow Nutsedge; 11.2 kg/ha | Crabgrass; 0.28 kg/ha | Downy Brome [9]; 1.12 kg/ha | Smartweed [10]; 1.12 kg/ha | Rice; 0.28 kg/ha | Panicum; 1.12 kg/ha
